In US5230899A, “Methods and compositions for making liposomes” (SmithKline Beecham Corporation, priority 1991, dated 1993):
Values belong to the compound of their own block, whether it stands above or below them.

Legend:
[1] = in vivo; conditions: rat, iv, 5 mg/kg
Procedure: The bioavailibility of indomethacin in a gel formulation was compared with that of a suspenison of indomethacin, both being compared with an IV dose. Rats were dosed with 5 mg/Kg of indomethacin. Oleic acid, arginine and phosphatide #5 (described above) in the a the ratio 1:1:1 was used to make the gel. […] Blood levels were measured 0-30 hours.

[2] = Efficiency of encapsulation / entrapment of drugs in DPPC:oleic acid:Arg (1:1:1) liposomes; format: physicochemical; conditions: 10 mg/ml DPPC:oleic acid:Arg (1:1:1) liposomes
Procedure: A number of drugs were encapsulated with 10 mg/ml DPPC:oleic acid:[MUT]:1:1) liposomes to illustrate medicament encapsulation for use as a drug delivery system.

C0 [1]: 117 µg/mL
Compound: COc1ccc2c(c1)c(CC(=O)O)c(C)n2C(=O)c1ccc(Cl)cc1 [indomethacin]

Compound: CNCC(O)c1ccc(OC(=O)C(C)(C)C)c(OC(=O)C(C)(C)C)c1 (stereo not drawn) [Dipivalyl Epinephrine]
% Entrapment ([2]; pH 7.1 PBS): 80%

% Entrapment ([2]; pH 7.8 PBS): 90%
Compound: CC(C(=O)O)c1ccc(-c2ccccc2)c(F)c1 (stereo not drawn) [Flurbiprofen]
